The results in this text go back to the supplement of paper PMC10307832.

Holding throughout (test): relative viability (nuclei count vs DMSO), 5 days (fraction); higher = more cells survive
Compound in assay [1]: C1CNCCC1C2=CC(=NN2)C3=CC=NC=C3 + CS(=O)(=O)CCNCc1ccc(-c2ccc3ncnc(Nc4ccc(OCc5cccc(F)c5)c(Cl)c4)c3c2)o1 [Lapatinib] (partner 2 µM)
The essentials:
(§1)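 Cells from lung cancer lines were seeded into 1536-well plates and, one day later, dosed by pin tool. Treatments were either a single drug or a fixed dose of an anchor drug with five library-drug doses (not always all listed) in √10 steps. After 5 days, nuclei were stained in a one-step fixation (final 0.05% Triton X-100, 1% formaldehyde, 1 ug/ml Hoechst) and counted on 4× images, and relative viability is the treated-to-vehicle nuclei ratio, as the median of duplicate plates.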

Compound in the assay “Tanzisertib + Lapatinib”: O[C@H]1CC[C@H](Nc2ncc3nc(Nc4c(F)cc(F)cc4F)n([C@H]4CCOC4)c3n2)CC1 [Tanzisertib] + CS(=O)(=O)CCNCc1ccc(-c2ccc3ncnc(Nc4ccc(OCc5cccc(F)c5)c(Cl)c4)c3c2)o1 [Lapatinib] (partner 2 µM)
Put shortly:
as §1

Compound in assay [2]: C[C@@H](N)c1ccc(C(=O)Nc2ccnc3[nH]ccc23)cc1 + C[C@@H](Oc1cc(-c2cnn(C3CCNCC3)c2)cnc1N)c1c(Cl)ccc(F)c1Cl [Crizotinib] (partner 1 µM)
Put shortly: as §1

Compound in assay [3]: C[C@@H](N)c1ccc(C(=O)Nc2ccnc3[nH]ccc23)cc1 + O=C(CCCCCCC(=O)Nc1ccccc1)NO [Vorinostat] (partner 1 µM)
Put shortly:
as §1

Take UMC-11: the relative viability in assay [1] (first compound 0.08 µM) worked out at 0.73; in assay [1] (first compound 0.8 µM), 1.23; in assay [1] (first compound 2.53 µM) it was 1.05; in assay [1] (first compound 8 µM), 1.04; with Tanzisertib + Lapatinib (first compound 0.08 µM), 1.13; with Tanzisertib + Lapatinib (first compound 0.253 µM), 0.974. In addition, the relative viability was found to be 1.1 in the assay with Tanzisertib + Lapatinib (first compound 0.8 µM); 0.89 with Tanzisertib + Lapatinib (first compound 2.53 µM); 0.84 with Tanzisertib + Lapatinib (first compound 8 µM); 0.714 in assay [2] (first compound 0.04 µM); 0.615 in assay [2] (first compound 0.1265 µM); 0.79 in assay [2] (first compound 0.4 µM). Moreover, the relative viability is 0.749 in assay [2] (first compound 1.265 µM); 0.346 in assay [2] (first compound 4 µM); 0.459 in assay [3] (first compound 0.04 µM); 0.514 in assay [3] (first compound 0.1265 µM); 0.515 in assay [3] (first compound 0.4 µM); 0.504 in assay [3] (first compound 1.265 µM). Further, the relative viability in assay [3] (first compound 4 µM) worked out at 0.356.
